53 compounds from ChEMBL document CHEMBL1862790, “Optimisation of fenarimol series for the treatment of Chagas disease” can be followed below.

Series [1] relates to Trypanosoma cruzi. The experiment in a line: microbe, parasite or virus in culture. Format: functional, organism-based, Tulahuen LacZ, Clone C4. Particulars: Trypanosoma cruzi, Tulahuen LacZ, Clone C4.
For series [2], the system named is Trypanosoma cruzi. As to the kind of experiment: microbe, parasite or virus in culture. Format: functional, Tulahuen LacZ, Clone C4.
Series [3] is described as follows: DNDI: Cytotoxicity against L-6 rat myoblasts from skeletal muscle cells. Particulars: L6 rat skeletal muscle myoblast cells, IC50.
Setting [4] is: Trypanosoma cruzi, Tulahuen LacZ, Clone C4.

One may read the IC50 as the midpoint of a concentration-inhibition curve. High values mean a need for much substance, low ones inhibition by little substance. As usually defined, the IC90 is the concentration at which the effect reaches the 90% level. A lower IC90 goes with an effect from little substance. With `CC(C)(C)C(=O)N1CCC(NC(c2ccc(C(F)(F)F)cc2)c2cccnc2)CC1` (stereo not given), the IC50 in series [1] was 0.024 µM; in series [3] it was above 100 µM. The IC90 in series [2] (setting [4]) amounted to 0.266 µM.
In the case of `CC(C)Oc1ccc(C(NC2CCN(C(=O)Nc3ccccc3)CC2)c2cccnc2)cc1` (stereo not given), the IC50 was 0.072 µM in series [1] and 72.1 µM in series [3]. For the same compound, it took 0.25 µM to reach the 90% level in series [2] (setting [4]) (IC90).
Taken in the same sequence, the figures for `O=C(N1CCN(C(c2cccnc2)c2ccc(Cl)cc2F)CC1)C(F)(F)F` (stereo not given) were 0.32 µM, above 100 µM and 0.83 µM.
`CC(C)Oc1ccc(C(c2cccnc2)N(C(=O)C2CC2)C2CCN(C(=O)C3CC3)CC2)cc1` (stereo not given): the IC50 in series [1] is above 1 µM; in series [3] it was above 100 µM. Also, the IC90 in series [2] (setting [4]) was above 1 µM.
In the case of `O=C(NC1CCN(C(c2ccc(C(F)(F)F)cc2)c2cccnc2)CC1)c1ccccc1` (stereo not given), the IC50 amounted to 0.0085 µM in series [1] and 62.6 µM in series [3]. For the same compound, in series [2] (setting [4]), the IC90 came to 0.0575 µM.
For `Cc1ncoc1C(=O)NC1CCN(C(c2ccc(C(F)(F)F)cc2)c2cccnc2)CC1` (stereo not given) the same measures were 0.029 µM, 84.7 µM and 0.12 µM.
In the case of `CC(C)(C)NC(=O)N1CCC(NC(c2ccc(C#N)cc2)c2cccnc2)CC1` (stereo not given), the results for the IC50 in series [1] and in series [3] were 0.585 µM and above 100 µM, respectively. The compound further came in with an IC90 in series [2] (setting [4]) of 0.996 µM.
For `Cc1cc(C(=O)N2CCC(NC(c3ccc(C(F)(F)F)cc3)c3cccnc3)CC2)no1` (stereo not given) the same measures were 0.12 µM, above 100 µM and 0.35 µM.
Taken in the same sequence, the figures for `CS(=O)(=O)NC1CCN(C(c2cccnc2)c2ccc(Cl)cc2F)CC1` (stereo not given) were 0.083 µM, above 100 µM and 0.364 µM.
Consider `Cc1cc(C(=O)N2CCN(C(c3cccnc3)c3ccc(Cl)cc3F)CC2)no1` (stereo not given), for which the IC50 in series [1] is 0.0665 µM; in series [3], 69.7 µM. The IC90 in series [2] (setting [4]) was 0.279 µM.
As for `CC(C)Oc1ccc(C(O)(c2ccc(Cl)cc2)c2cncnc2)cn1` (stereo not given), the IC50 in series [1] was determined as 0.04 µM; in series [3], 85.9 µM. The compound further gave an IC90 in series [2] (setting [4]) of 0.1 µM.
For `O=C(c1cscn1)N1CCC(NC(c2ccc(C(F)(F)F)cc2)c2cccnc2)CC1` (stereo not given) the same measures were 0.218 µM, above 100 µM and 0.833 µM.
Consider `O=C(C1CC1)N1CCN(C(c2ccc(C(F)(F)F)cc2)c2cccnc2)CC1` (stereo not given), for which the IC50 in series [1] is 0.0505 µM; in series [3], above 100 µM. In addition, it took 0.183 µM to reach the 90% level in series [2] (setting [4]) (IC90).
Turning to `O=C1NCCN1C1CCN(C(c2ccc(Cl)cc2)c2cccnc2)CC1` (stereo not given), the IC50 was 0.04 µM in series [1] and 67.8 µM in series [3]. The same compound displayed an IC90 in series [2] (setting [4]) of 0.173 µM.
Taken in the same sequence, the figures for `CCN(CC)C(=O)N1CCC(NC(c2ccc(OC(C)C)cc2)c2cccnc2)CC1` (stereo not given) were 0.007 µM, above 100 µM and 0.036 µM.
For `CC(C)(C)OC(=O)NC1CCN(C(c2ccc(C(F)(F)F)cc2)c2cccnc2)CC1` (stereo not given) the same measures were 0.011 µM, 48 µM and 0.038 µM.
For the compound `O=C(Nc1ccccc1)NC1CCN(C(c2cncnc2)c2ccc(Cl)cc2F)CC1` (stereo not given), the IC50 in series [1] is 0.03 µM; in series [3], 56.1 µM. In addition, the IC90 in series [2] (setting [4]) came out at 0.19 µM.
Regarding `Cc1cc(C(=O)NC2CCN(C(c3cncnc3)c3ccc(Cl)cc3F)CC2)no1` (stereo not given), the IC50 is 0.076 µM in series [1] and above 100 µM in series [3]. Further, the IC90 in series [2] (setting [4]) turned out to be 0.377 µM.
For `CC(C)(C)C(=O)N1CCN(C(c2cncnc2)c2ccc(Cl)cc2F)CC1` (stereo not given) the same measures were 0.0805 µM, above 100 µM and 0.301 µM.
For the compound `O=C(NC1CCN(C(c2ccc(C(F)(F)F)cc2)c2cccnc2)CC1)C1CC1` (stereo not given), the IC50 in series [1] is 0.072 µM; in series [3], above 100 µM. In series [2] (setting [4]), the 90% effect level (IC90) was put at 0.28 µM.
Taken in the same sequence, the figures for `Cc1ncsc1C(=O)NC1CCN(C(c2cncnc2)c2ccc(Cl)cc2F)CC1` (stereo not given) were 0.0785 µM, above 100 µM and 0.435 µM.
For `N#Cc1ccc(C(c2cccnc2)N2CCC(NC(=O)Nc3ccccc3)CC2)cc1` (stereo not given) the same measures were 0.029 µM, above 100 µM and 0.095 µM.
For `Cc1cc(C(=O)NC2CCN(C(c3ccc(C(F)(F)F)cc3)c3cccnc3)CC2)[nH]n1` (stereo not given) the same measures were 0.048 µM, 73.1 µM and 0.15 µM.
On to `Cc1ncsc1C(=O)NC1CCN(C(c2ccc(C(F)(F)F)cc2)c2cccnc2)CC1` (stereo not given), for which the IC50 in series [1] came out at 0.018 µM; in series [3], 60.4 µM. The IC90 in series [2] (setting [4]) turned out to be 0.082 µM.
With `CC(C)Oc1ccc(C(NC2CCN(C(=O)c3ccccc3)CC2)c2cccnc2)cc1` (stereo not given), the IC50 is 0.074 µM in series [1] and above 100 µM in series [3]. It took 0.27 µM to reach the 90% level in series [2] (setting [4]) (IC90).
For `N#Cc1ccc(C(NC2CCN(C(=O)c3ccccc3)CC2)c2cccnc2)cc1` (stereo not given) the same measures were 0.433 µM, above 100 µM and 0.948 µM.
With `FC(F)(F)c1ccc(C(NC2CCN(c3nccs3)CC2)c2cccnc2)cc1` (stereo not given), the IC50 in series [1] amounted to 0.0055 µM; in series [3], 56.4 µM. In series [2], the 90% effect level (IC90) was put at 0.42 µM.
Consider `NC(=O)c1cccc(C(O)(c2cccnc2)c2ccc(Cl)cc2F)c1` (stereo not given), for which the results for the IC50 in series [1] and in series [3] were 0.0245 µM and above 100 µM, respectively. Also, in series [2] (setting [4]), the 90% effect level (IC90) was put at 0.355 µM.
For `CS(=O)(=O)NC1CCN(C(c2ccc(C(F)(F)F)cc2)c2cccnc2)CC1` (stereo not given) the same measures were 0.05 µM, above 100 µM and 0.15 µM.
Take `CCN(CC)C(=O)NC1CCN(C(c2cncnc2)c2ccc(Cl)cc2F)CC1` (stereo not given): the IC50 worked out at 0.05 µM in series [1] and 58.1 µM in series [3]. In series [2] (setting [4]), this compound returned an IC90 of 0.25 µM.
For `O=C(c1cccc(C(O)(c2ccc(Cl)cc2)c2cccnc2)c1)N1CCC(O)CC1` (stereo not given) the same measures were 0.119 µM, above 100 µM and 0.733 µM.
With `Cc1cc(C(=O)N2CCC(NC(c3ccc(C(F)(F)F)cc3)c3cccnc3)CC2)[nH]n1` (stereo not given), the concentration for half-maximal inhibition (IC50) in series [1] was 0.2 µM; in series [3] it was above 100 µM. Further, it took 0.64 µM to reach the 90% level in series [2] (setting [4]) (IC90).
As for `Cc1ncsc1C(=O)N1CCN(C(c2cccnc2)c2ccc(Cl)cc2F)CC1` (stereo not given), the IC50 in series [1] was 0.036 µM; in series [3], 92.7 µM. In series [2] (setting [4]), the concentration for an effect of 90% (IC90) amounted to 0.243 µM.
Taken in the same sequence, the figures for `O=C(Nc1ccccc1)NC1CCN(C(c2ccc(C(F)(F)F)cc2)c2cccnc2)CC1` (stereo not given) were 0.014 µM, 31.7 µM and 0.036 µM.
For `Cc1cc(C(=O)NC2CCN(C(c3ccc(C(F)(F)F)cc3)c3cccnc3)CC2)no1` (stereo not given) the same measures were 0.0093 µM, 47.4 µM and 0.027 µM.
Taken in the same sequence, the figures for `O=C(NC1CCN(C(c2cncnc2)c2ccc(Cl)cc2F)CC1)c1ccc(F)cc1` (stereo not given) were 0.0215 µM, 60.1 µM and 0.114 µM.
With `CC(C)Oc1ccc(C(NC2CCN(C(=O)OC(C)(C)C)CC2)c2cccnc2)cc1` (stereo not given), the IC50 in series [1] is 0.0062 µM; in series [3] it was 58.8 µM. For the same compound, the IC90 in series [2] (setting [4]) worked out at 0.011 µM.
As for `O=C(NC1CCN(C(c2cccnc2)c2ccc(Cl)cc2F)CC1)c1ccccc1` (stereo not given), the IC50 in series [1] is 0.00825 µM; in series [3], 56.4 µM. Moreover, in series [2] (setting [4]), the IC90 worked out at 0.0833 µM.
Taken in the same sequence, the figures for `NC(=O)c1cccc(C(O)(c2cncnc2)c2ccc(Cl)cc2F)c1` (stereo not given) were 0.0865 µM, above 100 µM and 0.426 µM.
For the compound `O=C(c1ccc(F)c(C(O)(c2ccc(Cl)cc2)c2cccnc2)c1)N1CCOCC1` (stereo not given), the figures for the IC50 in series [1] and in series [3] were 0.048 µM and above 100 µM, respectively. For the same compound, the IC90 in series [2] (setting [4]) is 0.19 µM.
With `OC(c1ccc(Cl)cc1)(c1cccnc1)c1cnc(OCC2CC2)nc1` (stereo not given), the IC50 in series [1] stood at 0.025 µM; in series [3], 60.4 µM. The compound further showed an IC90 in series [2] (setting [4]) of 0.332 µM.
With `CC(C)Oc1ccc(C(NC2CCN(S(C)(=O)=O)CC2)c2cccnc2)cc1` (stereo not given), the IC50 was 0.14 µM in series [1] and above 100 µM in series [3]. Moreover, the IC90 in series [2] (setting [4]) worked out at 0.38 µM.
Consider `Cc1ncoc1C(=O)N1CCC(NC(c2ccc(C(F)(F)F)cc2)c2cccnc2)CC1` (stereo not given), for which the values for the IC50 in series [1] and in series [3] were 0.14 µM and above 100 µM, respectively. It took 0.54 µM to reach the 90% level in series [2] (setting [4]) (IC90).
For `Cc1cc(C(=O)NC2CCN(C(c3cncnc3)c3ccc(Cl)cc3F)CC2)[nH]n1` (stereo not given), the IC50 in series [1] is 0.173 µM; in series [3], above 100 µM. In series [2] (setting [4]), it took 0.756 µM to reach the 90% level (IC90).
Consider `CCN(CC)C(=O)NC1CCN(C(c2ccc(C#N)cc2)c2cccnc2)CC1` (stereo not given), for which the IC50 in series [1] was 0.028 µM; in series [3], above 100 µM. This compound also returned a concentration for an effect of 90% (IC90) in series [2] (setting [4]) of 0.085 µM.
Taken in the same sequence, the figures for `NC(=O)c1cccc(C(O)(c2ccc(Cl)cc2)c2cncnc2)c1` (stereo not given) were 0.92 µM, above 100 µM and 2.78 µM.
For `O=C(NC1CCN(C(c2cccnc2)c2ccc(Cl)cc2F)CC1)C1CC1` (stereo not given) the same measures were 0.038 µM, above 100 µM and 0.13 µM.
Taken in the same sequence, the figures for `CS(=O)(=O)N1CCN(C(c2ccc(C(F)(F)F)cc2)c2cccnc2)CC1` (stereo not given) were 0.0765 µM, above 100 µM and 0.572 µM.
As to `O=C(NC1CCN(C(c2cncnc2)c2ccc(Cl)cc2F)CC1)c1cccc(F)c1` (stereo not given), the IC50 in series [1] was found to be 0.0405 µM; in series [3], 61.2 µM. In addition, the 90% effect level in series [2] (setting [4]) (IC90) was put at 0.204 µM.
For `CS(=O)(=O)NC1CCN(C(c2ccc(C#N)cc2)c2cccnc2)CC1` (stereo not given) the same measures were 0.6 µM, above 100 µM and above 1 µM.
For `O=C(N1CCN(C(c2ccc(C(F)(F)F)cc2)c2cccnc2)CC1)C(F)(F)F` (stereo not given) the same measures were 0.321 µM, 62.6 µM and 0.797 µM.
Regarding `O=C(NC1CCN(C(c2cncnc2)c2ccc(Cl)cc2F)CC1)c1ccccc1F` (stereo not given), the results for the IC50 in series [1] and in series [3] were 0.0175 µM and above 100 µM, respectively. In series [2] (setting [4]), the IC90 is 0.0955 µM.
As for `N#Cc1ccc(C(c2cccnc2)N2CCC(NC(=O)c3ccccc3)CC2)cc1` (stereo not given), the IC50 in series [1] was 0.024 µM; in series [3], above 100 µM. Further, the IC90 in series [2] was 0.09 µM; in series [2] (setting [4]), 0.079 µM.
